Assay [1] has as its system Rattus norvegicus. Put plainly: Antihypertensive activity in spontaneously hypertensive rat assessed as maximum fall in mean arterial pressure at 0.312 mg/kg, po. Type of assay: functional, Artery.
The subject of assay [2] is Rattus norvegicus. Nature of the assay: Antihypertensive activity in spontaneously hypertensive rat assessed as maximum fall in mean arterial pressure at 5 mg/kg, po. Type of assay: functional, Artery.
Assay [3] is filed under the species Canis familiaris. Put plainly: Peripheral vasodilating activity in mongrel dog assessed as increase in iliac blood flow at 1600 ug, ia. The format is functional, Canis lupus familiaris, Artery.
Assay [4] has as its system Canis familiaris. Put plainly: In-vivo beta-adrenergic blocking activity in iv dosed mongrel dog assessed as blockade of isoproterenol-induced bronchodilation by measuring pulmonary pressure. The format is functional. The conditions noted are these: Canis lupus familiaris.
For assay [5], the system named is Rattus norvegicus. Put plainly: Antihypertensive activity in spontaneously hypertensive rat assessed as maximum fall in mean arterial pressure at 1.25 mg/kg, po. The format is functional, Artery.
The subject of assay [6] is Canis familiaris. Nature of the assay: Peripheral vasodilating activity in mongrel dog assessed as increase in iliac blood flow at 1600 ug, ia in presence of isoproterenol and 2000 ug/kg timolol. The format is functional, Canis lupus familiaris, Artery.
Assay [7] relates to Canis familiaris. Put plainly: In-vivo beta-adrenergic blocking activity in iv dosed mongrel dog assessed as blockade of isoproterenol-induced hypotension by measuring mean arterial pressure. The format is functional. The following applies: Canis lupus familiaris, Artery.
Assay [8] deals with Canis familiaris. Nature of the assay: In-vivo beta-adrenergic blocking activity in iv dosed mongrel dog assessed as blockade of isoproterenol-induced tachycardia by measuring heart rate. The format is functional. The following applies: Canis lupus familiaris.
The species named for assay [9] is Canis familiaris. Nature of the assay: Peripheral vasodilating activity in mongrel dog assessed as increase in iliac blood flow at 250 ug, ia. Type of assay: functional, Canis lupus familiaris, Artery.
Assay [10] concerns Canis familiaris. Nature of the assay: Peripheral vasodilating activity in mongrel dog assessed as increase in iliac blood flow at 8 ug, ia in presence of isoproterenol and 2000 ug/kg timolol. Type of assay: functional, Canis lupus familiaris, Artery.
Assay [11] concerns Canis familiaris. Put plainly: Peripheral vasodilating activity in mongrel dog assessed as increase in iliac blood flow at 32 ug, ia in presence of isoproterenol and 2000 ug/kg timolol. Type of assay: functional, Canis lupus familiaris, Artery.
The subject of assay [12] is Canis familiaris. Nature of the assay: Peripheral vasodilating activity in mongrel dog assessed as increase in iliac blood flow at 16 ug, ia in presence of isoproterenol and 2000 ug/kg timolol. The format is functional, Canis lupus familiaris, Artery.
The species entered for assay [13] is Canis familiaris. Put plainly: Peripheral vasodilating activity in mongrel dog assessed as increase in iliac blood flow at 8 ug, ia. The format is functional, Canis lupus familiaris, Artery.
The species entered for assay [14] is Canis familiaris. Put plainly: Peripheral vasodilating activity in mongrel dog assessed as increase in iliac blood flow at 32 ug, ia. Type of assay: functional, Canis lupus familiaris, Artery.
The species named for assay [15] is Canis familiaris. Nature of the assay: Peripheral vasodilating activity in mongrel dog assessed as increase in iliac blood flow at 16 ug, ia. Type of assay: functional, Canis lupus familiaris, Artery.
Assay [16] has as its system Rattus norvegicus. Nature of the assay: Antihypertensive activity in spontaneously hypertensive rat assessed as maximum fall in mean arterial pressure at 20 mg/kg, po. The format is functional, Artery.
Assay [17] relates to Canis familiaris. Put plainly: Peripheral vasodilating activity in mongrel dog assessed as increase in iliac blood flow at 1600 ug, ia in presence of isoproterenol and 1000 ug/kg timolol. The format is functional, Canis lupus familiaris, Artery.
The subject of assay [18] is Canis familiaris. Nature of the assay: Peripheral vasodilating activity in mongrel dog assessed as increase in iliac blood flow at 1600 ug, ia in presence of isoproterenol and 500 ug/kg timolol. The format is functional, Canis lupus familiaris, Artery.

A value given as a limit tells only on which side of the number the result lay.

By ED50 is commonly meant the dose at which the effect has come halfway, by size or by number of responders. As to `CC(C)(C)NC[C@H](O)COc1ccc(-c2ncc(-c3cccs3)[nH]2)cc1.O=C(O)/C=C\C(=O)O`, the Activity in the assay on Rattus norvegicus [1] turned out to be 9 mmHg; in the assay on Rattus norvegicus [2], 33 mmHg; in the assay listed under Canis familiaris [3], 23 mL/min; in the assay on Rattus norvegicus [5] it was 20 mmHg; in the assay on Canis familiaris [6], 15 mL/min. In addition, the ED50 in the assay on Canis familiaris [4] stood at 0.433 mg/kg; in the assay with Canis familiaris [7] it was 0.234 mg/kg; with Canis familiaris [8], 0.014 mg/kg.
For the compound `CC(C)(C)NCC(O)COc1ccc(-c2ncc(C(F)(F)F)[nH]2)c(Cl)c1` (racemic), the Activity in the assay on Rattus norvegicus [2] is 36 mmHg; in the assay listed under Canis familiaris [3], 2 mL/min; in the assay on Rattus norvegicus [5] it was 28 mmHg; in the assay filed under Canis familiaris [9], -2 mL/min. Besides, the ED50 with Canis familiaris [4] is 0.054 mg/kg; in the assay on Canis familiaris [7], 0.552 mg/kg; in the assay with Canis familiaris [8] it was 0.027 mg/kg.
For `CC(C)(C)NCC(O)COc1ccc(-c2nc(C(F)(F)F)c[nH]2)cc1` (racemic), the Activity worked out at 21 mmHg in the assay with Rattus norvegicus [1]; 10 mL/min with Canis familiaris [10]; 15 mL/min in the assay with Canis familiaris [11]; 49 mmHg in the assay on Rattus norvegicus [2]; 79 mL/min in the assay filed under Canis familiaris [3]; 36 mmHg in the assay with Rattus norvegicus [5]. The Activity was found to be 17 mL/min in the assay with Canis familiaris [12]; 15 mL/min in the assay on Canis familiaris [6]; 52 mL/min in the assay filed under Canis familiaris [13]; 63 mL/min in the assay listed under Canis familiaris [14]; 58 mL/min in the assay filed under Canis familiaris [15]. Further, the ED50 in the assay on Canis familiaris [4] turned out to be 0.071 mg/kg; with Canis familiaris [7], 0.042 mg/kg; in the assay on Canis familiaris [8] it was 0.0076 mg/kg.
Take `Cc1cc(OCC(O)CNC(C)(C)C)ccc1-c1ncc(C(F)(F)F)[nH]1` (racemic): the Activity in the assay with Rattus norvegicus [16] turned out to be 44 mmHg; in the assay on Rattus norvegicus [2], 43 mmHg; in the assay filed under Canis familiaris [3], 27 mL/min; in the assay on Rattus norvegicus [5] it was 32 mmHg; in the assay filed under Canis familiaris [9], 11 mL/min. Moreover, the ED50 with Canis familiaris [4] came out at 0.0298 mg/kg; in the assay with Canis familiaris [7], 0.361 mg/kg; in the assay on Canis familiaris [8], 0.0227 mg/kg.
In the case of `COc1ccc(-c2cnc(-c3ccc(OCC(O)CNC(C)(C)C)cc3)[nH]2)cc1` (racemic), the Activity with Rattus norvegicus [1] amounted to 12 mmHg; in the assay on Rattus norvegicus [2] it was 29 mmHg; in the assay listed under Canis familiaris [3], 25 mL/min; in the assay with Rattus norvegicus [5] it was 21 mmHg; in the assay on Canis familiaris [6] it was 20 mL/min. For the same compound, the ED50 was greater than 1 mg/kg with Canis familiaris [7] and 0.04 mg/kg in the assay with Canis familiaris [8].
Regarding `Cc1cc(-c2ncc(C(F)(F)F)[nH]2)ccc1OCC(O)CNC(C)(C)C` (racemic), the Activity amounted to 20 mL/min in the assay on Canis familiaris [17]; 36 mmHg in the assay with Rattus norvegicus [2]; 52 mL/min in the assay listed under Canis familiaris [3]; 23 mmHg in the assay with Rattus norvegicus [5]; 6 mL/min in the assay listed under Canis familiaris [9]. The ED50 in the assay with Canis familiaris [7] turned out to be 0.022 mg/kg; in the assay on Canis familiaris [8] it was 0.011 mg/kg.
For `CC(C)(C)NCC(O)COc1ccc(-c2nc(-c3cccs3)c[nH]2)cc1` (racemic), the Activity amounted to 12 mmHg in the assay with Rattus norvegicus [1]; 58 mmHg in the assay with Rattus norvegicus [16]; 35 mmHg with Rattus norvegicus [2]; 28 mL/min in the assay filed under Canis familiaris [3]; 36 mmHg in the assay with Rattus norvegicus [5]; 10 mL/min with Canis familiaris [6]. The ED50 in the assay with Canis familiaris [7] was found to be 0.635 mg/kg; in the assay on Canis familiaris [8], 0.016 mg/kg.
As to `Cc1c[nH]c(-c2ccc(OCC(O)CNC(C)(C)C)cc2)n1` (racemic), the Activity in the assay with Rattus norvegicus [16] was 27 mmHg; in the assay on Rattus norvegicus [2], 6 mmHg; in the assay filed under Canis familiaris [3] it was 101 mL/min; in the assay on Canis familiaris [18], 75 mL/min; with Canis familiaris [6] it was 62 mL/min. Moreover, the results for the ED50 with Canis familiaris [7] and in the assay on Canis familiaris [8] were greater than 1 mg/kg and 0.106 mg/kg, respectively.
Take `CC(C)(C)NCC(O)COc1ccc(-c2ncc[nH]2)cc1` (racemic): the Activity was 18 mmHg in the assay with Rattus norvegicus [16], 36 mL/min in the assay listed under Canis familiaris [3] and 31 mL/min in the assay with Canis familiaris [18]. Besides, the figures for the ED50 with Canis familiaris [4], in the assay with Canis familiaris [7] and with Canis familiaris [8] were greater than 1 mg/kg, greater than 1 mg/kg and 0.098 mg/kg, respectively.
Take `CC(C)(C)NCC(O)COc1ccc(-c2ncc(C(F)(F)F)[nH]2)cc1Cl` (racemic): the Activity in the assay on Rattus norvegicus [16] came to 6 mmHg; in the assay with Rattus norvegicus [2] it was 5 mmHg; in the assay listed under Canis familiaris [3] it was 17 mL/min; in the assay filed under Canis familiaris [9], 5 mL/min. Further, the values for the 50% effective dose (ED50) in the assay on Canis familiaris [4], in the assay with Canis familiaris [7] and in the assay on Canis familiaris [8] were 0.015 mg/kg, 0.017 mg/kg and 0.016 mg/kg, respectively.

The record behind these values is ChEMBL document CHEMBL3244218, “beta-Adrenergic blocking agents with acute antihypertensive activity” (1979).
